Results: patent US20240293367A1, “METHODS OF TREATING DISORDERS WITH A […]” (Cybin IRL Limited, priority 2023, published 2024)
“And” between values parts separate entries of the source, which are not always exact repeats. Equal entries are not always repeated. Where two headings read alike, the source gives them in different places.

How the values were obtained:
[1] = VAS ratings of 'Any drug effect' in the Phase I/IIa study; assay type: in vivo, human
Description: The visual analogue scale (VAS) is a psychometric response scale that can be used in questionnaires. It is a measurement instrument for subjective characteristics or attitudes that cannot be directly measured. When responding to a VAS item, respondents specify their level of agreement to a statement by indicating a position along a continuous line between two end points, usually a horizontal 100-mm line marked from “not at all,” “definitely not,” or the like, on the left to “extremely,” “definitely so,” or the like, on the right. The Bond and Lader VAS involves the subject indicating (with vertical marks) on sixteen horizontal 100-mm visual analogue scales how he/she feels. From these measurements, three main factors are calculated as described by Bond and Lader: alertness (from nine scores), contentedness (often called mood; from five scores), and calmness (from two scores). The Bowdle VAS and Drug Rating VAS provides the subject with items of the drug rating questionnaire: feel drug, like drug, and dislike drug. The VAS any drug effect involves the subject indicating (with vertical marks) on horizontal 100-mm visual analogue scales with the any drug effects item (“I can feel any drug effect”). In some embodiments, the subject has a maximum VAS score (e.g., Bond and Lader VAS, Bowdle VAS and Drug Rating VAS, and/or VAS any drug effect) of ≥60 mm after treatment. In some embodiments, the subject has a VAS score (e.g., Bond and Lader VAS, Bowdle VAS and Drug Rating VAS, and/or VAS any drug effect) of greater than or equal to 60 mm, 65 mm, 70 mm, 75 mm, 80 mm, 85 mm, 90 mm, or 95 mm, after treatment. In some embodiments, at least 50%, at least 55%, at least 60%, at least 65%, at least 70%, at least 75%, at least 80%, at least 85%, at least 90% of subjects treated with the methods described herein report a maximum VAS score (e.g., Bond and Lader VAS, Bowdle VAS and Drug Rating VAS, and/or VAS any drug effect) of greater than or equal to 60 mm, 65 mm, 70 mm, 75 mm, 80 mm, 85 mm, 90 mm, or 95 mm following treatment. In some embodiments, the subject has a maximum VAS any drug effect score of ≥60 mm after treatment. In some embodiments, the subject has a VAS any drug effect score of greater than or equal to 60 mm, 65 mm, 70 mm, 75 mm, 80 mm, 85 mm, 90 mm, or 95 mm, after treatment. In some embodiments, at least 50%, at least 55%, at least 60%, at least 65%, at least 70%, at least 75%, at least 80% of subjects treated with the methods described herein report a maximum VAS any drug effect score of greater than or equal to 60 mm, 65 mm, 70 mm, 75 mm, 80 mm, 85 mm, 90 mm, or 95 mm following treatment.
A visual analogue scale will be completed by all participants on each day of dosing (Day 1 and Day 8 or Day 22) and will consist of a 100 mm bipolar line with the far left side of the line marked not at all, and the far right side of the line marked extremely. Participants will be asked “Right now, do you feel any drug effects at all?” and participants in response will make a vertical mark on the line on study dosing days predose and at 0.5, 1, 2, 4, 6, 8 and 12 hours postdose.

[2] = 28-day (4-week GLP) toxicology study in dogs, toxicokinetic exposure; conditions: both sexes, dog, in vivo, toxicokinetic data, 28-day toxicology study in dogs, combined male and female
Description: The exposure limits will be applied on mean values within a cohort.

[3] = female, rat, in vivo, 40 mg/kg
[4] = Safety and tolerability (adverse events) in the Phase I/IIa study
[5] = not given; remark: listed apart in the source
[6] = all cohorts, psilocin-d10 n = 35
[7] = oral, equivalent doses, male Beagle dogs

[2H]C([2H])([2H])N(C([2H])([2H])[2H])C([2H])([2H])C([2H])([2H])c1c[nH]c2cccc(O)c12 [psilocin-d10, 3-(2-(bis(methyl-d3)amino)ethyl-1,1,2,2-d4)-1H-indol-4-ol]
subjects reporting maximum VAS-Any drug effect readings above 60 mm ([1]; 8 mg oral, Cohort 2, 4 healthy volunteers): 75% | Observed Mean Maximum VAS - Any drug effect ([1]; 8 mg oral, Cohort 2 Day 8, NHV, N = 4): 77.2 | individual VAS-Any drug effect scores of subjects with meaningful scores ([1]; 8 mg, Cohort 2): 100 mm and 97 mm and 89 mm | subjects reporting maximum VAS-Any drug effect readings above 60 mm ([1]; 10 mg oral, Cohort 3, 3 healthy volunteers): 66% | Observed Mean Maximum VAS - Any drug effect ([1]; 10 mg oral, Cohort 3 Day 8, NHV, N = 3): 78.3 | individual VAS-Any drug effect scores of subjects with meaningful scores ([1]; 10 mg, Cohort 3): 100 mm | Observed Mean Maximum VAS - Any drug effect ([1]; 12 mg oral, Cohorts 4 and 5 MDD, Day 1 or Day 22, blinded data incl. placebo subjects): 80.7 and 80.7^3 | median maximum VAS-Any drug effect score ([1]; 12 mg, Cohorts 4 and 5 MDD): 100 mm | Observed Mean Maximum VAS - Any drug effect ([1]; 16 mg oral, Cohort 6 MDD, Day 1 or Day 22, blinded data incl. placebo subjects, excluding vomited doses): 89.2 and 89.2^2,3 | median maximum VAS-Any drug effect score ([1]; 16 mg, Cohort 6 MDD): 100 mm | subjects reporting maximum VAS-Any drug effect readings above 60 mm ([1]; 16 mg, Cohort 6 MDD): 79.2% | AUC(0-t) ([2]; read-out: predefined maximum exposure level, AUC0-24): 123 ng·h/mL | Cmax ([2]; read-out: predefined maximum exposure level, Cmax): 63 ng/mL | AUC(0-t) [3]: 3630 ng·h/mL | Cmax [3]: 343 ng/mL | nausea at least possibly related to study treatment ([4]; 8 mg): 2 out of 4 | nausea at least possibly related to study treatment ([4]; 12 mg): 6 out of 24 | nausea at least possibly related to study treatment ([4]; 16 mg): 3 out of 12 | headache at least possibly related to study treatment ([4]; Cohort 3): 1 subject | headache at least possibly related to study treatment ([4]; Cohort 4): 1 subject | vomiting at least possibly related to study treatment ([4]; Cohort 4): 1 subject | vomiting at least possibly related to study treatment ([4]; Cohort 6): 3 subjects | discontinuation due to AEs ([4]; all cohorts): No participants discontinued due to AEs | Drug-related, treatment-emergent adverse events: At least one AE ([4]; all cohorts incl. healthy volunteers, psilocin-d10 n = 35): 21 (60.0) n (%) | Drug-related TEAE: Affect lability [4, 6]: 1 (2.9) n (%) | Drug-related TEAE: Anxiety [4, 6]: 2 (5.7) n (%) | Drug-related TEAE: Blood pressure increased [4, 6]: 5 (14.3) n (%) | Drug-related TEAE: Confusional state [4, 6]: 1 (2.9) n (%) | Drug-related TEAE: Dizziness [4, 6]: 1 (2.9) n (%) | Drug-related TEAE: Eructation [4, 6]: 1 (2.9) n (%) | Drug-related TEAE: Headache [4, 6]: 3 (8.6) n (%) | Drug-related TEAE: Nasal congestion [4, 6]: 1 (2.9) n (%) | Drug-related TEAE: Nausea [4, 6]: 6 (17.1) n (%) | Drug-related TEAE: Panic Attack [4, 6]: 1 (2.9) n (%) | Drug-related TEAE: Tachycardia [4, 6]: 1 (2.9) n (%) | Drug-related TEAE: Vomiting [4, 6]: 2 (5.7) n (%) | tolerability ([4]; dosage levels up to 16 mg, 8 healthy volunteers and 38 participants with MDD): well tolerated without significant adverse effects | bioavailability (Sprague Dawley, rat, in vivo, po): ~60% | reduction in oral concentration (Cmax) in comparison to psilocin after psilocybin (oral, Sprague Dawley rats, molar dose-normalised): 16% | difference in systemic exposure versus psilocin (rats): ~30% | difference in systemic exposure versus psilocin ([5]; dogs): ~30% | higher concentration (Cmax) compared to psilocin after psilocybin [5, 7]: 31% | higher exposure (AUC) compared to psilocin after psilocybin [5, 7]: 38% | oral availability ([5]; oral, female dogs): 91.3%
